Measurements taken from US20130338092A1, “COMPOUNDS AND METHODS FOR TARGETING LEUKEMIC STEM CELLS” (The Broad Institute, Inc., priority 2011, published 2013).
“Also recorded” adds a separate entry of the source. Where two headings read alike, the source gives them in different places.

What was measured:
[1] = system: LSC-enriched leukemia cells (MLL-AF9); assay: Leukemia coculture assay on primary MSC stroma (cobblestoning readout); assay type: cell-based, murine; details: for IC50: read-out: Leukemia IC50; for leukemia-selective activity in coculture vs normal HSPCs: primary MSC stroma
Experimental: Whole bone marrow were harvested from C57/B16 actin-dsRed mice (006051, Jackson Labs), subjected to red blood cell lysis (Qiagen), then granulocyte-macrophage progenitors (GMPs) were isolated by Fluorescence-activated cell sorting (FACsAria, Becton Dickinson). GMPs were spinfected twice (2500 rpm, 90 min, 37 C) in the presence of mIL3 (10 ng/ml, Peprotech), mIL6 (10 ng/ml, Peprotech), and mSCF (10 ng/ml, Peprotech) with pMSCV-MLL-AF9-Neo virus then transplanted into lethally irradiated C57/B16 recipients. After disease onset, the spleens were harvested and transplanted into sublethally irradiated secondary recipients. Subsequent transplantation of bulk spleen cells from leukemic secondary mice was repeated twice to generate leukemic GMPs from quaternary transplant leukemic mouse bone marrow.
Long bones and hips from moribund leukemic mice were harvested, cleaned, crushed and sequentially passed through 100 and 70 μM filters (Falcon). The cells were RBC lysed (Qiagen) and stained in PBS+2% FBS (Omega). Antibodies included lineage markers CD4, CD8, Gr1, Mac1, IL-7R, and Ter119 (Caltag), c-kit (17-1172-83, eBioscience), Sca-1 (11-5981-82, eBioscience), CD34 (11-0341-85, eBioscience), and CD16/32 (25-0161-82, eBioscience). Hoechst 33258 (H21491, Invitrogen) was also used, to identify live cells. Cells were sorted on a FacsAria II (Becton Dickinson).
The humerii, tibiae, ilia, femurs, and spine were isolated from actin-GFP mice (000329, Jackson Lab) crushed using a mortar and pestle, washed in phosphate-buffered saline (PBS) without magnesium and calcium (Gibco) with 0.5% fetal bovine serum (FBS) (HyClone) and filtered through a 70-μm filter. Red blood cell lysis was performed with ammonium-chloride/potassium-chloride (ACK) lysing buffer (Lonza), the cells were resuspended in α-MEM (StemCell Technologies), 20% FBS (HyClone) and 1× Pen-Strep (CellGro), plated in 25 ml in 150-cm^2 tissue-culture flasks (three per mouse), and incubated at 33° C. with 5% CO2. After 2-3 days, the medium was replaced with fresh α-MEM with 20% FBS. After 8-14 days, the cells were rinsed, split by trypsinization (CellGro), pooled, filtered through a 70 μm filter, replated at 3-4 million cells per 150-cm^2 tissue-culture flask, and grown at 33° C. with 5% CO2 for 3-4 days until nearly confluent. The cells were trypsinized, filtered, and resuspended in 0.5% FBS in PBS with biotin-conjugated anti-mouse CD105 antibody (eBioscience) for 15-30 minutes at room temperature. The CD105-labeled cells were incubated with Dynabead M-280 streptavidin-linked magnetic beads (Invitrogen) for 15-30 minutes at 4° C. with agitation and isolated using magnetic separation and rinsed once. The CD105^+ cell fraction was replated at 1-2 million cells per 150-cm^2 tissue-culture flask and incubated at 33° C. with 5% CO2 for 2-3 days.
The MSCs were trypsinized, filtered, diluted in phenol-red-free alpha-MEM with 20% FBS, and plated (30 μl for a total of 2000 cells per well) on 384-well clear-bottomed black tissue-culture treated plate (3712, Corning) pretreated with fibronectin (Millipore). Plate covers (VWR) were added, the plates were spun and at 500 with slow braking, and the cells were incubated at room temperature for 60-90 minutes before incubation at 33° C. with 5% CO2 for 3 days prior to hematopoietic cell plating. […]

normal HSPCs = assay: Normal HSPC coculture on primary MSC stroma; details: for IC50: Mus musculus
Experimental: The material was cleaned, crushed and sequentially passed through 100 and 70 μM filters (Falcon). […] The biotin-labeled cells were spun down, resuspended in 0.5% FBS in PBS, and incubated for 15-30 minutes at 4° C. with agitation with 1 mL of Dynabead M-280 streptavidin-linked magnetic beads per 4 mice. The bead-linked cells were depleted using magnetic separation and rinsed once. The lineage- and CD48-depleted cell fraction was labeled with streptavidin-APC-Cy7 antibody from BD Biosciences and c-kit-APC, Sca-1-FITC, CD48-Pacific Blue, and CD150 PE-Cy7 antibodies from eBioscience. DsRed-positive lineage-Sca-1+c-kit+CD48− HSCs were sorted using a FACS DiVa or FACS ARIA (BD Biosciences).
A total of 20 μL of 20 μg/mL fibronectin (Millipore) in PBS was added to each well of a 384-well clear-bottomed black tissue-culture treated plate (Corning) and incubated for 30-120 minutes at 33° C. or 37° C. […] The fibronectin solution was removed from each well using a 24-channel wand aspirator; then 30 μL of BMSC solution was added to plate 2000 BMSCs/well. […] Each plate was covered with a sterile rayon breathable membrane (VWR) and plastic lid, and then spun at 500 rpm (approximately 60× gravity) with slow braking. The plates were incubated at room temperature for 60-90 minutes before incubation at 33° C. with 5% CO2 for 3 days prior to HSC addition.
The sorted HSCs, SLAMs and progenitor cells were resuspended in phenol-red free alpha-MEM with 20% FBS and diluted to 10,000 cells/mL. A total of 20 μL of cell solution containing 200 hematopoietic cells was added to each well using a multichannel pipettor or liquid-dispensing system. Each plate was covered with a sterile rayon breathable membrane (VWR) and plastic lid, and then spun at 500 rpm (approximately 60×gravity) with slow braking. The plates were incubated at room temperature for 60-90 minutes before incubation at 33° C. with 5% CO2 overnight prior to compound or cytokine addition.
Image analysis was performed using MetaXpress software from MDC and CellProfiler software from the Broad Institute of Harvard and MIT.
Compound addition and incubation was performed as described for the LSC coculture screen above, but without a media change or readdition of the compound.
The selected set was screened in 8-point dose against both normal HSPCs with a high number of replicates (6) and LSC-enriched leukemia cells, each cocultured on primary MSCs.

MLL-AF9 LSC = assay: Triple coculture (LSCs and HSPCs on primary MSCs), leukemia cells; assay type: cell-based, murine; details: for leukemic cells in triple coculture: 200 nM lovastatic acid or 1 μM BRD7116, 5 days; for IC50: Mus musculus, MLL-AF9, murine LSCs in triple coculture with HSPCs on MSCs
Experimental: (§1) As in the original assay approach, treatment of these triple cocultures began one day after hematopoietic cell plating and was assessed 5 days later.
(§2) An in vitro therapeutic index was determined for each compound, a comparative measure of the potential for anti-LSC efficacy relative to the potential for dose-limiting toxicities to normal HSCs (myeloablation), or to normal progenitors (myelosuppression). Specifically, ratios were created using the IC50s for primary murine HSPCs in triple coculture as the numerator, and the IC50s for primary murine leukemia inhibition in triple coculture as the denominator, toward assessing the potential for HSC harm relative to LSC inhibition.

[2] = system: CD34+ cells from primary human leukemia samples; assay: Human CD34+ CAFC assay, leukemia samples; assay type: cell-based; details: 1.25 μM to 10 μM, 18 hours exposure, read at 5 weeks (2 weeks FLT3-ITD)
Experimental: Samples were centrifuged over Ficoll-Paque PLUS (GE Heathcare) step gradient (2000×g for 30 min in 50 ml tubes) to obtain mononuclear cells and then CD34^+ cells were selected with immunomagnetic beads (MACS Cell Separation, Miltenyi Biotec, Auburn, Calif.), except in one case, NPM1 mutation, which was CD34^− by flow cytometry and mononuclear cells were used. 50,000 cells were placed into 12.5 cm^2 flasks (Becton Dickinson Labware, Franklin Lakes, N.J.) in co-culture with the MS-5 mouse bone marrow-derived stromal cell line (kindly provided by Dr. Itoh, Dept. of Biology, Niigata University, Japan) and DMSO control and the number of final cobblestones was later read. The number of cells needed to form one cobblestone was then placed in triplicate for each sample with each drug at serial drug dilutions from 10 μM to 0.63 μM as well as with DMSO 0.5% for control purposes and incubated overnight with Iscove's modified Dulbecco's medium (IMDM, in house media preparation laboratory)+20% fetal calf serum (FCS, Atlanta Biologicals, Lawrenceville, Ga.) with glutamine (2 mM/ml, in house media preparation laboratory), monothioglycerol (MTG, 10 nM/ml, Sigma Cell Culture, St. Louis Mo.), c-Kit ligand (20 ng/ml, Amgen, Thousand Oaks, Calif.), Flt ligand (20 ng/ml, Imclone, Bridgewater, N.J.), TPO (20 ng/ml, Amgen) and IL-3 (20 ng/ml, Amgen). Cells were then washed to remove the drugs and placed into 96 well cell culture plates (Becton Dickinson) with α-MEM (in house media preparation laboratory)+12.5% FCS+12.5% horse serum (Gemini Bio-products, West Sacramento, Calif.) with glutamine, MTG, hydrocortisone (1 nM/ml, Sigma) and IL-3 in co-culture with MS-5 stromal cells. […] The same procedure was followed with normal CD34+ cells obtained from cord blood.
The cells were treated with compound or DMSO carrier control at four doses (ranging from 1.25 μM to 10 μM) in triplicate for 18 hours, washed thoroughly, then plated onto human stromal MS-5 monolayers (Itoh, K., Tezuka, H., Sakoda, H., Konno, M., Nagata, K., Uchiyama, T., Uchino, H., and Mori, K. J. (1989). Exp Hematol 17, 145-153.) and maintained in coculture with one subsequent half media change. After 5 weeks (2 weeks for the FLT3-ITD sample (Moore, M. A., Dorn, D. C., Schuring a, J. J., Chung, K. Y., and Morrone, G. (2007). Exp Hematol 35, 105-116.)), cobblestone formation was determined, and dose-response curves against the 7 cell types were generated for each compound.

primary leukemia cells = assay: Annexin V apoptosis assay; assay type: cell-based, murine; details: 22 hours in suspension, compared to DMSO control
Experimental: Compounds were added to a final DMSO concentration of 0.02%. […] The cells were analyzed by flow cytometry on a FacsCanto II (Becton Dickinson).

normal murine HSPCs = assay: Triple coculture (LSCs and HSPCs on primary MSCs), normal HSPCs; details: for IC50: Mus musculus, read-out: Normal HSPC* IC50
Experimental: as §1, §2

[3] = Mus musculus, MLL-AF9, LSCs on primary MSC stroma, 8-point dose
[4] = read-out: Normal IC50, HSPCs on primary MSC stroma, 8-point dose

| SMILES | IC50 [1, 3] [nM] | leukemia-selective activity in coculture vs normal HSPCs [1] | IC50 (normal HSPCs; [4]) [nM] | leukemic cells in triple coculture (MLL-AF9 LSC) | IC50 (MLL-AF9 LSC) [nM] | leukemia cobblestone inhibition (human CAFC) [2] | induction of apoptosis (Annexin V) (primary leukemia cells) | IC50 (normal murine HSPCs) [nM] | IC50 ([1]; LSCs on primary MSC stroma, 8-point dose) [nM] | IC50 ([1]; Mus musculus, MLL-AF9, statins (acid form), LSCs cocultured on primary MSC stroma) [nM] | IC50 (normal HSPCs; read-out: Normal IC50, statins (acid form), HSPCs cocultured on primary MSC stroma) [nM] | effect on normal HSPCs in coculture (normal HSPCs; up to 20 μM, the maximum dose tested) | leukemic cells in triple coculture (MLL-AF9 LSC; listed as lovastatin) | normal HSPCs in triple coculture (normal murine HSPCs; 200 nM lovastatic acid or 1 μM BRD7116, 5 days) |
| --- | --- | --- | --- | --- | --- | --- | --- | --- | --- | --- | --- | --- | --- | --- |
| CC1(C)C(C(=O)Nc2ccc(S(=O)(=O)c3ccc(NC(=O)C4C(C)(C)C4(C)C)cc3)cc2)C1(C)C [BRD7116] | 204 | selective loss of the LSC-enriched leukemia cells | > 20000 | selective loss of the leukemia population; also recorded: selectively cleared the dsRed^+ leukemic cells | 500 | leukemia cobblestone inhibition was observed across all six primary leukemia samples | mild induction of apoptosis | 5000 | – | – | – | – | – | – |
| CCC(C)C(=O)OC1CC(C)C=C2C=CC(C)C(CCC(O)CC(O)CC(=O)O)C21 (stereo not shown) [Lovastatic acid] | < 200 | leukemia-selective activity | > 20000 | selectively cleared the dsRed^+ leukemic cells | 100 | leukemia cobblestone inhibition was observed across all six primary leukemia samples | underwent apoptosis | 800 | 167 | < 200 | > 10000 | minimal toxicity | selective loss of the leukemia population | continued to display healthy, cobblestoned morphologies |
